Laboratory results: ChEMBL document CHEMBL1124950, “Synthesis and cardiotonic activity of novel biimidazoles” (J Med Chem, 1990)
The source made the active and inactive calls. The rule behind the calls is not given here.

Columns and labels:
Canis familiaris [1] = assay: Peak percent change in contractile force produced by the administration of 1 mg/kg intravenously in anesthetized dog; type: functional, Canis lupus familiaris; conditions: route intravenous
Canis familiaris [2] = assay: 25% increase in left ventricular contractility (dP/dtmax) in anesthetized dog on iv administration; type: functional; conditions: Canis lupus familiaris, Heart left ventricle
Rattus norvegicus [3] = assay: 25% increase in left ventricular contractility (dP/dtmax) on iv administration in anesthetized rat; not active; type: functional, organism-based; conditions: Heart left ventricle
Rattus norvegicus [4] = assay: 25% increase in left ventricular (dP/dtmax) after iv administration in anesthetized rat; Not active at 3 mg/kg; type: functional, organism-based; design: dose 3 mg/kg; conditions: Heart left ventricle
Canis familiaris [5] = assay: Peak percent change in contractile force produced by 1 mg/kg administered intravenously in anesthetized dog; type: functional, Canis lupus familiaris; conditions: route intravenous
Canis lupus familiaris = assay: 25% increase in left ventricular contractility (dP/dtmax) after iv administration in anesthetized dog; conditions: Heart left ventricle
Canis familiaris [6] = assay: Peak percent change in contractile force produced after iv administration at 0.3 mg/kg in anesthetized dog; type: functional, Canis lupus familiaris
Canis familiaris [7] = assay: Peak percent change in contractile force produced by the administration of 1 mg/kg intravenously in anesthetized dog; not active; type: functional, organism-based; design: dose 1 mg/kg; conditions: Canis lupus familiaris; at 1 mg/kg
Rattus norvegicus [8] = assay: 25% increase in left ventricular contractility (dP/dtmax) on iv administration in anesthetized rat; Not active; type: functional, organism-based; conditions: Heart left ventricle
Canis familiaris [9] = assay: Peak percent change in contractile force produced by the administration of 1 mg/kg intravenously in anesthetized dog; Not active; conditions: Canis lupus familiaris
Phosphodiesterase 4 [10] = target: T1, Phosphodiesterase 4 (Homo sapiens, UniProt P27815+Q08499+Q07343+Q08493); assay: Inhibition of canine heart Phosphodiesterase 4; type: protein assay, Canis lupus familiaris; conditions: target entry is the homologue from another species
Canis familiaris [11] = assay: Increased heart rate in conscious dogs on oral administration at 10 mg/kg; type: functional, Canis lupus familiaris
Canis familiaris [12] = assay: Inotropic activity in anesthetized dog; type: functional; conditions: Canis lupus familiaris
Canis familiaris [13] = assay: Peak percent change in contractile force produced after iv administration at 1 mg/kg in anesthetized dog
Phosphodiesterase 4 [14] = target: T1, Phosphodiesterase 4; assay: (§1) Inhibition of canine kidney Phosphodiesterase 4; type: protein assay, Canis lupus familiaris; conditions: target entry is the homologue from another species
Canis familiaris [15] = assay: 25% increase in left ventricular contractility (dP/dtmax) after iv administration in anesthetized dog; Not active; type: functional; conditions: Canis lupus familiaris, Heart left ventricle
Rattus norvegicus [16] = assay: 25% increase in left ventricular contractility (dP/dtmax) on iv administration in anesthetized rat; type: functional; conditions: Heart left ventricle
Rattus norvegicus [17] = assay: 25% increase in left ventricular contractility (dP/dtmax) after iv administration in anesthetized rat; type: functional; conditions: Heart left ventricle
Canis familiaris [18] = assay: Inotropic effect in anesthetized dog; type: functional; conditions: Canis lupus familiaris
Phosphodiesterase 4 [19] = target: T1, Phosphodiesterase 4; assay: Inhibition of canine kidney Phosphodiesterase 4 at 150 uM; conditions: Canis lupus familiaris, target entry is the homologue from another species
Rattus norvegicus [20] = assay: Peak percent change in contractile force produced by the administration of 1 mg/kg intravenously in ansthetetized rat; type: functional; conditions: route intravenous
Phosphodiesterase 4 [21] = target: T1, Phosphodiesterase 4; assay: as §1; type: protein assay; conditions: Canis lupus familiaris; target entry is the homologue from another species; concentration not given here
Canis familiaris [22] = assay: Peak percent change in contractile force produced after iv administration at 0.3 mg/kg in ansthetetized dog; type: functional, Canis lupus familiaris
Canis familiaris [23] = assay: 25% increase in left ventricular contractility (dP/dtmax) on iv administration in anesthetized dog; type: functional; conditions: Canis lupus familiaris, Heart left ventricle
Rattus norvegicus [24] = assay: 25% increase in left ventricular contractility (dP/dtmax) on iv administration in anesthetized rat; Not active at 3 mg/kg; type: functional, organism-based; design: dose 3 mg/kg; conditions: Heart left ventricle

With `CCn1ccnc1-c1nc(C#N)c[nH]1` the Change (Canis familiaris [1]) was 41%.
With `Cn1cc(C#N)nc1-c1ncc[nH]1` the ED25 (Canis familiaris [2]) was 0.17 mg/kg.
`N#Cc1c[nH]c(-c2cccs2)n1` was tested, and the ED25 (Rattus norvegicus [3]) was “inactive”.
`C[S+]([O-])c1c[nH]c(-c2ncc[nH]2)n1` (configuration not stated) was tested, and the Change (Canis familiaris [1]) was 1%.
In the case of `NCc1c[nH]c(-c2ncc[nH]2)n1`, the ED25 (Rattus norvegicus [3]) is reported as “inactive”.
Work on `N#Cc1c[nH]c(-c2nc(C(F)(F)F)c[nH]2)n1` yielded an ED25 (Canis familiaris [2]) of 0.33 mg/kg.
With `O=C(O)c1c[nH]c(-c2ncc[nH]2)n1` the ED25 (Rattus norvegicus [3]) was “inactive”.
For `Cc1ccsc1-c1nc(C#N)c[nH]1`, the ED25 (Rattus norvegicus [3]) was “inactive”.
Molecule `COc1ccc(-c2c[nH]c(-c3nc(C#N)c[nH]3)n2)cc1` has a Change (Canis familiaris [1]) of 106% and an ED25 (Canis familiaris [2]) of 0.36 mg/kg.
In the case of `N#Cc1c[nH]c(-c2nc(C#N)c[nH]2)n1`, the ED25 (Canis familiaris [2]) is reported as 0.18 mg/kg.
With `N#Cc1c[nH]c(-c2nc(-c3ccc(C(F)(F)F)cc3)c[nH]2)n1` the ED25 (Canis familiaris [2]) was 0.26 mg/kg.
For `Clc1c[nH]c(-c2ncc[nH]2)n1`, the ED25 (Rattus norvegicus [4]) was “inactive”.
With `N#Cc1c[nH]c(-c2nc(Br)c(Br)[nH]2)n1` the Change (Canis familiaris [5]) was 96%.
Molecule `N#Cc1c[nH]c(-c2nc(Br)c[nH]2)n1` has an ED25 (Canis lupus familiaris) of 0.2 mg/kg.
With `C[C@@H]1C(=O)NC2=Nc3cccc(Cl)c3CN21` [QUAZINONE] the Change (Canis familiaris [6]) was 47%.
For `N#Cc1c[nH]c(-c2cn[nH]c2)n1`, the Change (Canis familiaris [7]) was “inactive” and the ED25 (Rattus norvegicus [3]) was “inactive”.
For `Cc1c[nH]c(-c2ncc[nH]2)n1`, the ED25 (Rattus norvegicus [3]) was “inactive”.
Work on `OCc1c[nH]c(-c2ncc[nH]2)n1` yielded a Change (Canis familiaris [1]) of 0%.
In the case of `FC(F)(F)c1c[nH]c(-c2c[nH]cn2)n1`, the Change (Canis familiaris [1]) is reported as 0%.
With `FC(F)(F)c1c[nH]c(-c2ncc[nH]2)n1` the ED25 (Rattus norvegicus [8]) was “inactive”.
With `N#Cc1[nH]cnc1-c1ncc[nH]1` the Change (Canis familiaris [1]) was 0%.
With `N#Cc1c[nH]c(-c2ccco2)n1` the ED25 (Rattus norvegicus [3]) was “inactive”.
With `N#Cc1c[nH]c(-c2nccn2Cc2ccccc2)n1` the Change (Canis familiaris [1]) was 2%.
With `Brc1c[nH]c(-c2nc(Br)c[nH]2)n1` the ED25 (Rattus norvegicus [4]) was “inactive”.
`N#Cc1c[nH]c(-c2csc(NC(=N)N)n2)n1` was tested, and the Change (Canis familiaris [9]) was “inactive”.
`N#Cc1c[nH]c(-c2ncc[nH]2)n1` was tested, and the IC50 (Phosphodiesterase 4 [10]) was 36.7 µM, the “Increase in heart rate” value (Canis familiaris [11]) was 45 beats min-1 and the ED25 (Canis familiaris [12]) was 0.16 mg/kg. The Change (Canis familiaris [13]) was 60% and the IC50 (Phosphodiesterase 4 [14]) was 339 µM.
Work on `Cc1c[nH]c(-c2nc(C#N)c[nH]2)n1` yielded an ED25 (Canis familiaris [15]) of 0.63 mg/kg.
`O=Cc1c[nH]c(-c2ncc[nH]2)n1` was tested, and the ED25 (Rattus norvegicus [4]) was “inactive”.
For `Cn1c(Cl)cnc1-c1nc(C#N)c[nH]1`, the Change (Canis familiaris [1]) was 11%.
`c1c[nH]c(-c2ncc[nH]2)n1` gave an ED25 (Rattus norvegicus [16]) of 0.24 mg/kg.
In the case of `N#Cc1c[nH]c(-c2cccnc2)n1`, the ED25 (Rattus norvegicus [3]) is reported as “inactive” and the Change (Canis familiaris [1]) is reported as 31%.
In the case of `CN(C)Cc1ccc(-c2nc(C#N)c[nH]2)o1`, the Change (Canis familiaris [9]) is reported as “inactive”.
`N#Cc1c[nH]c(-c2nccn2-c2ccccc2)n1` gave a Change (Canis familiaris [1]) of 0%.
For `O=Cc1c[nH]c(-c2nc(C=O)c[nH]2)n1`, the ED25 (Rattus norvegicus [4]) was “inactive”.
In the case of `Cn1ccnc1-c1nc(C#N)c[nH]1`, the Change (Canis familiaris [1]) is reported as 29%.
For `N#Cc1c[nH]c(-c2ccc(-n3ccnc3)cc2)n1`, the Change (Canis familiaris [1]) was 17%.
In the case of `Clc1c[nH]c(-c2nc(Cl)c[nH]2)n1`, the ED25 (Rattus norvegicus [17]) is reported as 0.7 mg/kg.
In the case of `N#Cc1c[nH]c(-c2nc(Cl)c[nH]2)n1`, the Change (Canis familiaris [5]) is reported as 95%.
In the case of `NC(=O)c1c[nH]c(-c2ncc[nH]2)n1`, the ED25 (Rattus norvegicus [3]) is reported as “inactive”.
`C=Cn1ccnc1-c1nc(C#N)c[nH]1` showed a Change (Canis familiaris [1]) of 41%.
Work on `Brc1c[nH]c(-c2ncc[nH]2)n1` yielded an ED25 (Rattus norvegicus [17]) of 5.5 mg/kg.
`CSc1ccc(C(=O)c2[nH]c(=O)[nH]c2C)cc1` [ENOXIMONE] was tested, and the ED25 (Rattus norvegicus [16]) was 1.4 mg/kg, the Change (Canis familiaris [1]) was 73% and the ED25 (Canis familiaris [18]) was 0.46 mg/kg. The inhibition (Phosphodiesterase 4 [19]) was 34%.
With `FC(F)(F)c1c[nH]c(-c2nc(Br)c[nH]2)n1` the ED25 (Rattus norvegicus [4]) was “inactive”.
For `Cn1ccnc1-c1ncc(C#N)n1C`, the Change (Rattus norvegicus [20]) was 13%.
`Nc1cc(-c2ccncc2)c[nH]c1=O` [INAMRINONE] showed an inhibition (Phosphodiesterase 4 [21]) of 24% and a Change (Canis familiaris [22]) of 19%.
`N#Cc1c[nH]c(-c2nc(-c3ccccc3)c[nH]2)n1` was tested, and the ED25 (Canis familiaris [23]) was 0.89 mg/kg.
`N#Cc1c[nH]c(-c2ccc(-c3nc(C#N)c[nH]3)cc2)n1` was tested, and the Change (Canis familiaris [1]) was 8%.
`N#Cc1c[nH]c(-c2ccc(Br)s2)n1` was tested, and the ED25 (Rattus norvegicus [3]) was “inactive”.
In the case of `Cn1c(C#N)cnc1-c1ncc[nH]1`, the Change (Canis familiaris [1]) is reported as 3%.
`Cc1[nH]c(=O)c(C#N)cc1-c1ccncc1` [MILRINONE] was tested, and the ED25 (Rattus norvegicus [16]) was 0.3 mg/kg, the Change (Canis familiaris [1]) was 52% and the ED25 (Canis familiaris [18]) was 0.06 mg/kg. It also gave a Change (Canis familiaris [22]) of 110%.
With `N#Cc1c[nH]c(-c2cc[nH]n2)n1` the ED25 (Rattus norvegicus [3]) was “inactive” and the Change (Canis familiaris [1]) was -4%.
With `c1c[nH]c(-c2nc(-c3nn[nH]n3)c[nH]2)n1` the ED25 (Rattus norvegicus [3]) was “inactive” and the Change (Canis familiaris [1]) was 0%.
With `COC(=O)c1c[nH]c(-c2ncc[nH]2)n1` the ED25 (Rattus norvegicus [3]) was “inactive”.
In the case of `CSc1c[nH]c(-c2ncc[nH]2)n1`, the Change (Canis familiaris [1]) is reported as 4%.
For `C[Si](C)(C)CCOCn1ccnc1-c1nccn1COCC[Si](C)(C)C`, the ED25 (Rattus norvegicus [24]) was “inactive”.
For `N#Cc1c[nH]c(-c2c[nH]cn2)n1`, the Change (Canis familiaris [1]) was 25%.
